Test results published in ChEMBL document CHEMBL4476883, “Hydroxy formamide derivatives and their use” (2017).
pIC50: −log10 of the molar value.

Key:
[1] = target: T1, Bone morphogenetic protein 1 (Homo sapiens, UniProt P13497); experiment: Inhibition of C-terminal FLAG-6x-His epitope tagged and N-terminal human RAGE signal sequence tagged human BMP1 (23 to 721 amino acids) expressed in CHO-E1A cells pre-incubated for 10 mins before promyostatin peptide substrate addition and measured after 30 mins using 50 nM BMP1 by FRET based assay; assay type: cell-based
T1 sequence (P13497 whole entry): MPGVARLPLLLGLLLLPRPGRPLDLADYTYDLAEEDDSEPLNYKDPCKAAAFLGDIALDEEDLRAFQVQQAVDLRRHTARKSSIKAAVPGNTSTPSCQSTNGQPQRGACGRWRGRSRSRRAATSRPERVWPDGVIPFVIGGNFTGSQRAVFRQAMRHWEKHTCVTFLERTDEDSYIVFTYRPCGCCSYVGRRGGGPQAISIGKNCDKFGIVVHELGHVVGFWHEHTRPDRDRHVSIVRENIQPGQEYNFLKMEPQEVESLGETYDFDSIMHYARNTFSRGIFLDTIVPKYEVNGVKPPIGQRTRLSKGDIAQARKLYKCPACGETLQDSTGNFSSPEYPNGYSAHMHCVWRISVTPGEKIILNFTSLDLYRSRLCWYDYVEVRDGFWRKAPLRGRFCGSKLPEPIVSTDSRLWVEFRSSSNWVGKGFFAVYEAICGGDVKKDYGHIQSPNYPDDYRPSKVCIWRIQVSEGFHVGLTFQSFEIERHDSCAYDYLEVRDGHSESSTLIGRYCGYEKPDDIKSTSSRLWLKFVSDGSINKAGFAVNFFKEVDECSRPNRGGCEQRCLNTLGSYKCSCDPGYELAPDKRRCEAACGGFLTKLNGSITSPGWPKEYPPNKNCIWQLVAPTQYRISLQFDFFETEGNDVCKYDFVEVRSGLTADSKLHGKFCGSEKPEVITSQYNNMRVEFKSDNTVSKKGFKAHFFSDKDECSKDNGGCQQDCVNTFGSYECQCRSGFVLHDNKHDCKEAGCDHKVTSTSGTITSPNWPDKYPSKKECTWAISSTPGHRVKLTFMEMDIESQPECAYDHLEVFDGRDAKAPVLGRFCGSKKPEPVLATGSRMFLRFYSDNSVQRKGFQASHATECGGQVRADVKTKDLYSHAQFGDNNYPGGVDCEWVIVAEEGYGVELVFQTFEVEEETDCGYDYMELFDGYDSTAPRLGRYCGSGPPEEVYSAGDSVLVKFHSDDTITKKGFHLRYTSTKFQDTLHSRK

[2] = Reduction in mature collagen deposition levels in human cardiac fibroblasts incubated for 24 to 48 hrs by immunostaining based assay; assay type: functional
[3] = Reduction in PICP levels in human cardiac fibroblasts incubated for 24 to 48 hrs by ELISA; assay type: functional
Tolloid-like protein 2 = target: T2, Tolloid-like protein 2 (Homo sapiens, UniProt Q9Y6L7); experiment: Inhibition of C-terminal Avi-6x-His epitope tagged and N-terminal human RAGE signal sequence tagged recombinant human TLL2 (26 to 1015 amino acids) expressed in CHOE1A cells incubated for 60 mins with promyostatin peptide substrate by FRET based assay; assay type: cell-based
T2 sequence (Q9Y6L7 whole entry): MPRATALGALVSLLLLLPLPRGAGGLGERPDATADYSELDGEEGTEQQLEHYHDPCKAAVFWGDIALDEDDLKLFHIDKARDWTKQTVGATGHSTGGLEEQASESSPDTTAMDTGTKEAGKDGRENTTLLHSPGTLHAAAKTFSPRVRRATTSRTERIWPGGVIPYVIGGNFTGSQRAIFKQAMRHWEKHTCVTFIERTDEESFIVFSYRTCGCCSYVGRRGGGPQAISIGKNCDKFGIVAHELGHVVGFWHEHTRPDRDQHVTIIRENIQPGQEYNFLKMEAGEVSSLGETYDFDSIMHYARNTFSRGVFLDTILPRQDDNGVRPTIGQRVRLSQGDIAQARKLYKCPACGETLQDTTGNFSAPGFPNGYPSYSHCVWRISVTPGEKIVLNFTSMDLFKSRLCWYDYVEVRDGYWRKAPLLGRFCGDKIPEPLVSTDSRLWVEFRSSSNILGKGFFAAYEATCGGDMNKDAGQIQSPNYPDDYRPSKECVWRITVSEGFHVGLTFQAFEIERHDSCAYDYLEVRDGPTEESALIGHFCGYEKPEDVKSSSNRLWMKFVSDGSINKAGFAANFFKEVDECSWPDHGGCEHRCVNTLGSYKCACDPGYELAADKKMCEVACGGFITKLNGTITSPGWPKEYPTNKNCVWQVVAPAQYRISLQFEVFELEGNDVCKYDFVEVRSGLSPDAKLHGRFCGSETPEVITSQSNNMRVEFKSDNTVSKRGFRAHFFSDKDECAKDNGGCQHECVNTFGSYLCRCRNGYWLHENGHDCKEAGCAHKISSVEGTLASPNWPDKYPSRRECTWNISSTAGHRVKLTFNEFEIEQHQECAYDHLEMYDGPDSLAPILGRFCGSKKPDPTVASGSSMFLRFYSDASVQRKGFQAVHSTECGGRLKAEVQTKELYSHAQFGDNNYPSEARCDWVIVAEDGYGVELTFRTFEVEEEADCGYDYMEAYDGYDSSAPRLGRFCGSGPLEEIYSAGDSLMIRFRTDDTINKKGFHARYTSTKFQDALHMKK

Tolloid-like protein 1 = Tolloid-like protein 1 (Homo sapiens, UniProt O43897, I156V/N221S/V284A); experiment: Inhibition of recombinant human TLL1 I156V/N221S/V284A mutant expressed in CHOE1A cells pre-incubated for 10 mins before promyostatin peptide substrate addition and measured after 60 mins by FRET based assay; assay type: cell-based
[4] = target: T1, Bone morphogenetic protein 1; experiment: Inhibition of C-terminal FLAG-6x-His epitope tagged and N-terminal human RAGE signal sequence tagged human BMP1 (23 to 721 amino acids) expressed in CHO-E1A cells pre-incubated for 10 mins before promyostatin peptide substrate addition and measured after 60 mins using 0.5 nM BMP1 by FRET based assay; assay type: cell-based

Tolloid-like protein 1, sequence (O43897 148-1013 I156V/N221S/V284A limits assumed): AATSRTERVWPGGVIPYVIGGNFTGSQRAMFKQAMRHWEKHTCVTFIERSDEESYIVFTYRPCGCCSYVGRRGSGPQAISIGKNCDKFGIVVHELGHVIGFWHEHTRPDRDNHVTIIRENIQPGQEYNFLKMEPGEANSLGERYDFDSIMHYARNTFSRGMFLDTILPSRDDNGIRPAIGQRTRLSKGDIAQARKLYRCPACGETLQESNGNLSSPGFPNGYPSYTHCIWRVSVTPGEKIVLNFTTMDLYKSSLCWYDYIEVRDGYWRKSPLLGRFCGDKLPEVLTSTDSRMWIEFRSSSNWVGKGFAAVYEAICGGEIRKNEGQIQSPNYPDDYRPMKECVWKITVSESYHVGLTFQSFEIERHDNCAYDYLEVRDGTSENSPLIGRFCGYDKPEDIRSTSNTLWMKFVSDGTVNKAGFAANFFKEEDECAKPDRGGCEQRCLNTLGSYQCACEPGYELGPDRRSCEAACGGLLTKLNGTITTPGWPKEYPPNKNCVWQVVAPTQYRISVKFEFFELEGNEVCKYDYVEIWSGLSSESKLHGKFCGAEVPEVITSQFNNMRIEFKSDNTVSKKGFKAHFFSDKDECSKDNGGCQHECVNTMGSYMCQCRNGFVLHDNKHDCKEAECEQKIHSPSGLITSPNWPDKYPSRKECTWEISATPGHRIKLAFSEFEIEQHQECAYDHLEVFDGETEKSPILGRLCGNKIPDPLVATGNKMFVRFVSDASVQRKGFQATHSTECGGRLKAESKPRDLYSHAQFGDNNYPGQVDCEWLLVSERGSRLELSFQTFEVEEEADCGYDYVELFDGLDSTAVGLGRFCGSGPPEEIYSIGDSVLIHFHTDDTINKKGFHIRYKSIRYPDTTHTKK

| pIC50 [1] | pIC50 (Tolloid-like protein 2) | pIC50 (Tolloid-like protein 1) | pIC50 [4] | SMILES | pIC50 [2] | pIC50 [3] |
| --- | --- | --- | --- | --- | --- | --- |
| > 6.60 | > 6.20 | > 6.40 | > 6.90 | CCCCC[C@@H](C(=O)NCNC(=O)c1cccc(-c2ccc(CC(=O)N[C@@H](CC(=O)O)C(=O)O)c(OCC)c2)n1)[C@@H](CC)N(O)C=O | > 5.80 | > 4.70 |
| > 6.60 | > 6.20 | > 6.40 | > 6.90 | CCCCC[C@@H](C(=O)NCNC(=O)c1ccnc(-c2ccc(C(=O)O)c(OCC)c2)n1)[C@@H](CC)N(O)C=O | > 5.80 | > 4.70 |
| > 6.60 | > 6.20 | > 6.40 | > 6.90 | CCCCC[C@@H](C(=O)NCNC(=O)c1cccc(-c2ccc(C(=O)N[C@@H](CC(=O)O)C(=O)O)c(OCC)c2)n1)[C@@H](CC)N(O)C=O | > 5.80 | > 4.70 |
| > 6.60 | > 6.20 | > 6.40 | > 6.90 | CCCCC[C@@H](C(=O)NCNC(=O)c1ccnc(-c2ccc(P(=O)(O)O)c(OCC)c2)n1)[C@@H](CC)N(O)C=O | > 5.80 | > 4.70 |
| > 6.60 | > 6.20 | > 6.40 | > 6.90 | CCCCC[C@@H](C(=O)NCNC(=O)c1cccc(-c2cc(C(=O)O)cc(S(N)(=O)=O)c2)n1)[C@@H](CC)N(O)C=O | > 5.80 | > 4.70 |
| > 6.60 | > 6.20 | > 6.40 | > 6.90 | CCCCC[C@@H](C(=O)NCNC(=O)c1cncc(-c2ccc(P(=O)(O)O)c(OCC)c2)n1)[C@@H](CC)N(O)C=O | > 5.80 | > 4.70 |
| > 6.60 | > 6.20 | > 6.40 | > 6.90 | CCCCC[C@@H](C(=O)NCNC(=O)c1cccc(-c2cc(OCC)cc(C(=O)O)c2)n1)[C@@H](CC)N(O)C=O | > 5.80 | > 4.70 |
